# Laboratory results as given in patent US20170333390A1, “PHYTOCHEMICAL COMPOSITIONS INCLUDING SESAMIN FOR ANTI-INFLAMMATORY, ANTI-CYTOKINE STORM, AND OTHER USES” (CHIANG MAI UNIVERSITY, priority 2009, published 2017).
# Tested on: IL-1 released by LPS induced peripheral blood mononuclear cells (PBMCs)
# Experiment: Quantity of IL-1 released by LPS induced PBMCs (ELISA)
# Assay type: cell-based
# Conditions: LPS 20 ng/ml
# Protocol: Experiments were conducted to evaluate the effect of particular phytochemical compositions provided by the present disclosure on quantity of IL-1 released by specified cells found within a body of a living organism. Cells used for the experiment described in this example are LPS induced peripheral blood mononuclear cells (PBMCs). It is understood by a person of ordinary skill in the art that the PBMCs may be substituted for other immune cells found within the body. It is also understood by a person having ordinary skill in the art that other inducing substances or chemicals besides LPS, for example viral antigens, may also be used for inducing the PBMCs.
# To conduct the experiments of example two, PBMCs were isolated and prepared using isolation techniques or methods known to a person of ordinary skill in the art. An exemplary method or technique is the differential density gradient centrifugation technique, the steps or process steps of which are known to a person of ordinary skill in the art. In addition, LPS can be obtained from a commercial source, for example Sigma-Aldrich Co.
# The PBMCs are cultured in 10% fetal calf serum in RPMI1640 medium. Seven cultures of PBMCs, i.e. culture 1 to culture 7, were prepared. The contents of each of cultures 1 to 7 are as follows: • (i) Culture 1: First control culture. Includes a predetermined volume of PBMCs (1×10^5 PBMCs/culture); • (ii) Culture 2: Second control culture. […]
# After a predetermined time period, quantity of IL-1 in each of cultures 1 to 7 was quantified using the ELISA technique (e.g., Biotrak Easy ELISA Aersham). The quantity of IL-1 detected by the ELISA technique in each of cultures 1 to 7 reflects the quantity of IL-1 released by the PBMCs of that culture.
smiles,measurement,setting,value
c1cc2c(cc1[C@H]1OC[C@H]3[C@@H]1CO[C@@H]3c1ccc3c(c1)OCO3)OCO2 [sesamin],decrease in quantity of IL-1,"0.1 uM sesamin (culture 3), compared to control culture 1, 24 hours",approximately 5%
same,decrease in quantity of IL-1,"0.5 uM sesamin (culture 4), compared to control culture 1, 24 hours",approximately 5%
same,decrease in quantity of IL-1,"10 uM sesamin (culture 7), compared to control culture 2, 24 hours",approximately 35%
